Source: US9303069B2, “Peptides for treating cancer” (University of Mississippi Medical Center, priority 2014, dated 2016)

How the values were obtained:
Type in all cases: cell-based, human
[1] = system: HOSE and HOSE/IRIS cells; assay: Survival of HOSE versus HOSE/IRIS cells; conditions: 10 μM inhibitor, 24 hours
Experimental: To test that, HOSE or HOSE/IRIS cells were incubated for 24 hours with 10 μM of ErbB2 (CP-724714), EGFR (Erlotinib), TrkB (K252a), JNK (SP600125), p38 (SB203580), ERK (PD98059) and PI3′K/AKT (LY294002) inhibitors. […] Taken together, BRCA1-IRIS overexpression activates AKT and ERK, thereby inactivating FOXO3a and promoting Cyclin D1, survivin, Bcl-2 and NF-κB expression and suppressing p27 expression (FIG. 15).
HOSE cells overexpressing IRIS show a higher degree of resistance to cisplatin than HOSE cells (compare blue to black line in FIG. 30).
Cell viability measurement. Cell viability under different experimental conditions was determined using the MTS assay […]. Briefly, SKOV3, OVACAR3, HOSE and HOSE/IRIS cells (2.5×10^4 cells per well) were seeded in 96 well plates and incubated overnight at 37° C. in 10% humidified CO2 atmosphere in varying concentrations of IRIS peptide, or inhibitors of ErbB2 (CP-724714), EGFR (Erlotinib), TrkB (K252a), JNK (SP600125), p38 (SB203580), ERK (PD98059) and PI3′K/AKT (LY294002) inhibitors for 24 hours at 37° C. Cell Titer 96® Aqueous (Promega, Madison, Wis., USA) was used to measure viability following manufactures instructions. Cell viability (%) was expressed as a ratio to control cells×100. Growth inhibition was also determined by manually counting cells in five different microscopic fields. Change in cell numbers (fold) was expressed as a ratio to control cells×100. All experiments were done in at least triplicates, three different times. * is p≦0.05, ** is p≦0.001 and *** is p≦0.0001.

[2] = system: HME and HME/IRIS cells; assay: Survival of HME versus HME/IRIS cells with pathway inhibitors; conditions: 10 μM inhibitor, 24 hours
Experimental: Similar numbers of HME or HME/IRIS were grown in the presence of 10 μM of ERK (PD98059), JNK (SP600125), p38 (SB203580), EGFR (Erlotinib), ErbB2 (CP-724714) or PI3′K/AKT (LY294002) inhibitors for 24 hours. In keeping with published data (Nakuci et al., 2006; Hao and ElShamy, 2007; Chock et al., 2010a), BRCA1-IRIS overexpression promoted cells proliferation (FIG. 73). Thus, data are represented as percentage of treatment compared to no treatment in each cell line separately. […] Thus, as expected, cells overexpressing BRCA1-IRIS exerts some of their functions through EGFR/ErbB2 that feeds into PI3′K/AKT/mTOR and MAPK signaling pathways (FIG. 74).
Cell viability measurement. Cell viability under different experimental conditions was determined using the MTS assay. Briefly, cells (2.5×10^4 cells per well) were seeded in 96-well plates and incubated overnight at 37° C. in 10% humidified CO2 atmosphere. The next day they were incubated with varying concentration of peptide, or inhibitors for 24 hours at 37° C. Cell viability was determined using cell Titer 96® Aqueous (Promega, Madison, Wis., USA) following manufacturer's instructions. Cell viability (%) was expressed as a ratio of treated cells to control cells×100. Growth inhibition was also determined by manually counting cells in five different microscopic fields. Change in cell numbers (fold) was expressed as a ratio of the means of these recording of treated cells compared to control cells×100. Each experiment was done in triplicate, repeated three separate times.

[3] = system: BRCA1-IRIS; assay: BRCA1-IRIS expression in breast cells (Western); conditions: MDA-MB-231 and MDA-MB-468; 5 μM IRIS peptide, 10 μM LY294002 or 10 μM PD98059 24 hours; siRNA 72 hours
Experimental: HME and HME/IRIS cells were treated with 10, 20 and 50 μM of paclitaxel for 24 hours. Compared to HME/IRIS cells, untreated HME cells express very low level of BRCA1-IRIS (FIG. 68, left). […] Both EGF and NRG1, which were secreted at higher levels from untreated HME/IRIS cells, remained high after paclitaxel (until ˜50 μM, FIG. 68, left), whereas in HME cells, both were induced by low paclitaxel treatment (FIG. 68, left). Consistently, in HME/IRIS cells EGFR was phosphorylated on Y1173 (activated by EGF when EGFR is in complex with ErbB2) and ErbB2 on Y1248 (activated by NRG1 when ErbB2 is in complex with ErbB3) remained the same after paclitaxel treatment (until ˜50 μM, FIG. 68, left). Phosphorylated EGFR-Y1173 and ErbB2-Y1248 was only observed in paclitaxel treated HME cells, especially at low concentration (FIG. 68, left).
Survived/paclitaxel-resistant cells were then propagated in the absence of paclitaxel and analyzed. Again, the intrinsically high level of BRCA1-IRIS was not affected by paclitaxel in HME/IRIS cells (FIG. 69, left). […] The expressions of EGFR, ErbB2 and ErbB3 were high in HME/IRIS and HME cells (FIG. 69, left). Despite an intrinsic increase in HME/IRIS and paclitaxel-acquired increase in HME cells in AKT activation, FOXO inactivation/degradation and thus activation increase in CyclinD1, survivin, Bcl-2, Bcl-xL and NF-κB was observed (FIG. 69, right).
To test that hypothesis, an intron 11 peptide (right in FIG. 26) fused to a cell/nucleus penetrating signal at its N-terminus (left in FIG. 26) was synthesized (hereafter IRIS peptide). First, to assess the effect of this IRIS peptide, equal numbers of HME, HME/IRIS, MDA-MB-231, MDA-MB-468 and BT549 cells were exposed to increasing concentrations of scrambled or IRIS peptide for 48 hours. […] It is possible that preventing BRCA1-IRIS-X complex formation destabilizes BRCA1-IRIS and perhaps leads to its degradation.
To investigate whether inactivating BRCA1-IRIS could sensitize TNBC to paclitaxel-induced cell death, HME cells were exposed to 0.5 μM, while HME/IRIS, MDA-MB-231, MDA-MB-468 and BT549 cells were exposed to 5 μM of IRIS peptide alone or with 5, 10 or 20 μM of paclitaxel for 24 hours. […] Again, IRIS peptide alone at these concentrations led to 50% reduction in survival of all cell lines. […] Indeed, in the presence of IRIS peptide >60%, >70% and >90% reduction in the survival of all cell lines in the presence of 5, 10 and 20 μM of paclitaxel, respectively (FIG. 84).
To relate the effect of IRIS peptide on cell survival to the effect of BRCA1-IRIS on AKT and ERK survival pathways, MDA-MB-231 and MDA-MB-468 were treated with vehicle, 5 μM of IRIS peptide, 10 μM LY294002, 10 μM PD98059 for 24 hours or were transfected with BRCA1-IRIS siRNA for 72 hours.

[4] = system: AKT, p-AKT, p-FOXO and FOXO3a; assay: Signalling proteins in MDA-MB-231 and MDA-MB-468 cells (Western); conditions: 5 μM IRIS peptide, 10 μM LY294002 or 10 μM PD98059, 24 hours
Description: This was completely in line with decreased MDM2 and Skp2 (the ubiquitin ligases responsible for p-FOXO degradation) expression in BRCA1-IRIS silenced and BRCA1-IRIS and AKT inactivated cells (FIG. 87).

[5] = system: AKT, ERK, MDM2 and Skp2; assay: Signalling proteins in SKOV3 and OVCAR3 cells (Western)
Description: Finally, to further dissect the IRIS-induced cisplatin resistance pathway, PI3′K/AKT (using […]) and ERK (using PD98059) were inactivated and compared to IRIS peptide in two aggressive ovarian cancer cell lines. […] Phosphorylation of cytoplasmic or nuclear FOXO3a by p-AKT and/or p-ERK promotes MDM2 binding and priming ubiquitylation, which is then followed by Skp2 branching ubiquitylation and FOXO3a degradation (Huang and Tindall, 2011). FOXO was less phosphorylated in LY, PD as well as IRIS-silenced/inactivated SKOV3 or OVCAR3 cells (FIG. 34). […] Consistently, in BRCA1-IRIS silenced/inactivated cells accumulation of unphosphorylated/stabilized FOXO3a was detected. In contrast, FOXO3a was still decreased to different degrees in LY or PD treated cells (FIG. 34).

| Compound | effect on survival of HOSE versus HOSE/IRIS cells [1] | effect on survival of HME versus HME/IRIS cells [2] | BRCA1-IRIS expression [3] | p-FOXO and FOXO3a levels [4] | AKT and ERK expression and activation [5] | MDM2 and Skp2 expression [5] |
| --- | --- | --- | --- | --- | --- | --- |
| C#Cc1cccc(Nc2ncnc3cc(OCCOC)c(OCCOC)cc23)c1 [Erlotinib] | equally decreased survival of HOSE and HOSE/IRIS cells | reduced survival of both cell lines | – | – | – | – |
| COc1cccc(-c2cc(=O)c3ccccc3o2)c1N [PD98059] | significantly decreased survival of HOSE/IRIS cells only | specifically reduced survival in HME/IRIS and not HME cells | significantly reduced BRCA1-IRIS expression in MDA-MB-231 and to a lesser degree in MDA-MB-468 | no effect | significantly inactivated their cognate protein | reduced Skp2 and not MDM2 expression |
| COCC(=O)NC/C=C/c1ccc2ncnc(Nc3ccc(Oc4ccc(C)nc4)c(C)c3)c2c1 [CP-724714] | significantly decreased survival of HOSE/IRIS cells only | specifically reduced survival in HME/IRIS and not HME cells | – | – | – | – |
| C[S+]([O-])c1ccc(-c2nc(-c3ccncc3)c(-c3ccc(F)cc3)[nH]2)cc1 (stereo not shown) [SB203580] | equally decreased survival of HOSE and HOSE/IRIS cells | no effect on either cell line | – | – | – | – |
| COC(=O)[C@@]1(O)C[C@H]2O[C@]1(C)n1c3ccccc3c3c4c(c5c6ccccc6n2c5c31)C(=O)NC4 [K252a] | significantly decreased survival of HOSE/IRIS cells only | – | – | – | – | – |
